Data from patent publication US20250333419A1, “BICYCLIC COMPOUNDS AS INHIBITORS OF WRN” (Incyte Corporation, priority 2023, published 2025).

What was measured:
[1] = target: T1, WRN (Homo sapiens, UniProt Q14191); assay: WRN Helicase activity assay (fluorescence DNA unwinding); type: biochemical; settings: IC50, 1-hr pre-incubation with enzyme; geometric means of at least 2 independent replicates
T1 construct: A His-tagged construct of WRN (AA S2-S1235) was produced and used for the ATPase assay; His; made in house; host or cells: Sf9 insect cells (baculovirus)
Experimental: Compounds of the examples were tested for WRN helicase activity. DNA encoding the target protein, 6×HIS-TEV-WRN-517-945, was produced, cloned and transfected as detailed in Example D. To determine the inhibitory properties of the compounds, a 384 wells plate-based Helicase assay was set up to measure the extent of DNA unwinding (Helicase) activity of WRN. The WRN Helicase assay was designed to measure increase in fluorescence signal using a fluorescence based, donor-quencher paired forked dsDNA oligomer substrate (custom synthesis from Sigma-Aldrich) prepared by annealing equal amounts of oligo GPat-1 ([BHQ2][…]) and oligo GPat-2 ([…][TAM]). Continuous measurement of fluorescent signal was used to optimize the buffer conditions, concentration of enzyme (WRN), concentration of substrates (ATP & dsDNA), and the linearity of the Helicase reaction. All solutions were prepared in the following assay buffer: 50 mM Tris-HCl, pH-7.5, 2 mM MgCl2, 50 mM NaCl, 1 mM EGTA, 0.01% P-20, 0.05% BSA, and 2 mM DTT prepared with nuclease free water.
A serial dilution (1:3 scheme) of the compounds was prepared in neat DMSO and 100 nL of the compounds was dispensed in the Greiner black low volume (Greiner #784076) 384 wells assay plate. An 1-hr pre-incubation of the compounds with enzyme was included. A His-tagged construct of WRN (AA S2-S1235) was produced and used for the ATPase assay. Maximum inhibition control wells were set up with the addition of only assay buffer, and no inhibition control wells were set up with neat DMSO without test compounds. The reaction was initiated by addition of 5 μL substrate mix (200 μM ultrapure ATP, and 50 nM dsDNA prepared in assay buffer) and incubated at 25° C. for 35 min. A typical Helicase reaction consists of 25 nM forked dsDNA, 100 μM ATP, and 1 nM WRN prepared in assay buffer. The WRN Helicase reaction was quenched by the addition of 5 μL ‘STOP’ solution containing 100 mM EDTA (final EDTA concentration 33.33 mM) prepared in assay buffer. The plates were read on BMG PHERAstar FSX using 540/590 module to measure an increase of fluorescence. Data analysis was carried out using the Genedata software following % of control normalization. Fitting parameters include dose response IC50, Hill slope (n), maximum inhibition (S∞), and minimum inhibition (S0). The reported IC50 values for compounds in this invention are the geometric means of at least 2 independent replicates.

[2] = target: T1, WRN; assay: WRN ATPase activity assay (ADP-Glo); type: biochemical; settings: IC50, 1-hr pre-incubation with enzyme; geometric means of at least 2 independent replicates
Experimental: Compounds of the Examples were tested for WRN ATPase activity. WRN ATPase activity catalyzes ATP hydrolysis to produce ADP and phosphate. DNA encoding the target protein, 6×HIS-TEV-WRN-517-945, was produced, cloned and transfected as detailed in Example D. The amount of ADP produced was measured using ADP-Glo™ Kinase Assay kit from Promega Corporation in a Greiner white regular volume 384 wells assay plate (Greiner #781075). Data was normalized to a standard curve generated using various ADP concentrations and the corresponding luminescent signal intensities at each concentration. The assay conditions were optimized for enzyme concentration (WRN), substrate concentrations (ATP & dsDNA), and the linearity of the ATPase reaction, in the following assay buffer: 50 mM Tris-HCl, pH-7.5, 2 mM MgCl2, 50 mM NaCl, 1 mM EGTA, 0.01% P-20, 0.05% BSA, and 2 mM DTT prepared with nuclease free water.
A serial dilution (1:3 scheme) of the compounds were prepared in neat DMSO, with 100 nL of the compounds dispensed in the 384 wells assay plate. An 1-hr pre-incubation of the compounds with enzyme was included. A His-tagged construct of WRN (AA S2-S1235) was produced and used for the ATPase assay. Maximum inhibition control wells were set up with the addition of only assay buffer, and no inhibition control wells were set up with neat DMSO without test compounds. The reaction was initiated by addition of 5 μL substrate mix (200 μM ultrapure ATP, and 50 nM dsDNA prepared in assay buffer) and incubated at 25° C. for 35 min. A forked dsDNA oligomer substrate was prepared by annealing equal amounts of oligo GPat-1 ([BHQ2][…]) and oligo GPat-2 ([…][TAM]) and was used as dsDNA substrate for WRN ATPase assay. A typical ATPase reaction consists of 25 nM forked dsDNA, 100 μM ATP, and 1 nM WRN prepared in assay buffer. The WRN ATPase reaction was stopped by the addition of 5 μL of ADP-Glo Reagent from ADP-Glo™ Kinase Assay kit and incubated for 40 min to deplete the unreacted ATP. Afterwards, 5 μL of Kinase Detection Reagent from the ADP-Glo™ Kinase Assay kit was added and incubated for 1 hr for the development of luminescence signal.
Luminesce signals were measured on BMG PHERAstar FSX using luminescence protocol. Data analysis was carried out using Genedata software following % of control normalization. Fitting parameters include dose response IC50, Hill slope (n), maximum inhibition (S∞), and minimum inhibition (S0). The reported IC50 values for compounds in this invention are the geometric means of at least 2 independent replicates.

T1 sequence (Q14191 2-1235): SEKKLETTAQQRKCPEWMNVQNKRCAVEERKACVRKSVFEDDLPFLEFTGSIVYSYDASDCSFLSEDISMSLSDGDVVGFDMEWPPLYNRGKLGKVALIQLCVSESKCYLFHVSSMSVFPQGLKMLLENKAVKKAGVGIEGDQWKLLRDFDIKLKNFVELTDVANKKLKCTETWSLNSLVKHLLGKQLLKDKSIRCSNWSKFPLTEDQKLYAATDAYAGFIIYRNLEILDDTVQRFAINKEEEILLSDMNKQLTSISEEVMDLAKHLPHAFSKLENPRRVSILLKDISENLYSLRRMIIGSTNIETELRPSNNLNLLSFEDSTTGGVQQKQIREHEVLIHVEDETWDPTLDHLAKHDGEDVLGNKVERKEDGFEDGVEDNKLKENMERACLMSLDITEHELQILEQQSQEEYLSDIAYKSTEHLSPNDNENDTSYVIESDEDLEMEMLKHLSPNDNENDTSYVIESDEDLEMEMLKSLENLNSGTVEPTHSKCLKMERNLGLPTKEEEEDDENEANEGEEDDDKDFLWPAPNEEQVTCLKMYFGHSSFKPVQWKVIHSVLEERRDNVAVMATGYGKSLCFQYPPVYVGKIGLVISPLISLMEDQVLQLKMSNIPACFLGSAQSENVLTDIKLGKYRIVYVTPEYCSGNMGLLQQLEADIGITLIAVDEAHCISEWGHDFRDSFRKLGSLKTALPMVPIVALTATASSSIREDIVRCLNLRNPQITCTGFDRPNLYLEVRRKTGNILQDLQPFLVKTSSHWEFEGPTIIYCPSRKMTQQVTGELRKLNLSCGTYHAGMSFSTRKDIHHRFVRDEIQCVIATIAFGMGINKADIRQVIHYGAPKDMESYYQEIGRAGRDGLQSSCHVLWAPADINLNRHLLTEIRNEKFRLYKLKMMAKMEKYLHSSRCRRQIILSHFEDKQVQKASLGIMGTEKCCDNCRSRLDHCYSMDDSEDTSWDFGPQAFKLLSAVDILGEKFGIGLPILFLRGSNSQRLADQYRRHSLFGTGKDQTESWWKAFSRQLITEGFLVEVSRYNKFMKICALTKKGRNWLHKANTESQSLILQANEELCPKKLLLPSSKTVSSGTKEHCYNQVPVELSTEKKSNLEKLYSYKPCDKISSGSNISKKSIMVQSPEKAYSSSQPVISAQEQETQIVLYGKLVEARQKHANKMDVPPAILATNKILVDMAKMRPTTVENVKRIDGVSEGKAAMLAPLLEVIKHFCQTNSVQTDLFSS

Compound	IC50 [1]	IC50 [2]
C=CC(=O)Nc1ccccc1-c1c(CC)n(CC(=O)Nc2ccc(C(F)(F)F)cc2Cl)c2nc(C(C)C)nn2c1=O [Example 21, N-(2-(4-(2-((2-Chloro-4-(trifluoromethyl)phenyl)amino)-2-oxoethyl)-5-ethyl-2-isopropyl-7-oxo-4,7-dihydro-[1,2,4]triazolo[1,5-a]pyrimidin-6-yl)phenyl)acrylamide]	100 to 500 nM	100 to 500 nM
C=CC(=O)N1CCCC=C1c1c(CC)n(CC(=O)Nc2ccc(C(F)(F)F)cc2)c2nc(C3=CCOCC3)nn2c1=O [Example 14, 2-(6-(1-Acryloyl-1,4,5,6-tetrahydropyridin-2-yl)-2-(3,6-dihydro-2H-pyran-4-yl)-5-ethyl-7-oxo-[1,2,4]triazolo[1,5-a]pyrimidin-4(7H)-yl)-N-(4-(trifluoromethyl)phenyl)acetamide]	< 100 nM	< 100 nM
C=CC(=O)Nc1ccccc1-c1c(CC)n(CC(=O)Nc2ccc(C(F)(F)F)cc2)c2nc(-c3cccs3)nn2c1=O [Example 22, N-(2-(5-Ethyl-7-oxo-4-(2-oxo-2-((4-(trifluoromethyl)phenyl)amino)ethyl)-2-(thiophen-2-yl)-4,7-dihydro-[1,2,4]triazolo[1,5-a]pyrimidin-6-yl)phenyl)acrylamide]	< 100 nM	< 100 nM
C=CC(=O)Nc1c(C)cccc1-c1c(CC)n(CC(=O)Nc2ccc(C(F)(F)F)cc2)c2nc(C3=CCOCC3)nn2c1=O [Example 7, N-(2-(2-(3,6-Dihydro-2H-pyran-4-yl)-5-ethyl-7-oxo-4-(2-oxo-2-((4-(trifluoromethyl)phenyl)amino)ethyl)-4,7-dihydro-[1,2,4]triazolo[1,5-a]pyrimidin-6-yl)-6-methylphenyl)acryl amide]	500 to 1000 nM	100 to 500 nM
CCc1c(-c2ccccc2NC(=O)/C(C#N)=C\C(C)C)c(=O)n2nc(C3=CCOCC3)nc2n1CC(=O)Nc1ccc(C(F)(F)F)cc1 (single isomer, unassigned) [Example 4, (Z)-2-Cyano-N-(2-(2-(3,6-dihydro-2H-pyran-4-yl)-5-ethyl-7-oxo-4-(2-oxo-2-((4-(trifluoromethyl)phenyl)amino)ethyl)-4,7-dihydro-[1,2,4]triazolo[1,5-a]pyrimidin-6-yl)phenyl)-4-methylpent-2-enamide]	500 to 1000 nM	500 to 1000 nM
C=CC(=O)Nc1ccccc1-c1c(CC)n(CC(=O)Nc2ccc(C(F)(F)F)cc2)c2nc(C3CCN(C(=O)C=C)CC3)nn2c1=O [Example 25, N-(2-(2-(1-Acryloylpiperidin-4-yl)-5-ethyl-7-oxo-4-(2-oxo-2-((4-(trifluoromethyl)phenyl)amino)ethyl)-4,7-dihydro-[1,2,4]triazolo[1,5-a]pyrimidin-6-yl)phenyl)acrylamide]	< 100 nM	< 100 nM
CCc1c(-c2ccccc2NC(=O)/C(C#N)=C/C(C)C)c(=O)n2nc(C3=CCOCC3)nc2n1CC(=O)Nc1ccc(C(F)(F)F)cc1 (single isomer, unassigned) [Example 5, (E)-2-Cyano-N-(2-(2-(3,6-dihydro-2H-pyran-4-yl)-5-ethyl-7-oxo-4-(2-oxo-2-((4-(trifluoromethyl)phenyl)amino)ethyl)-4,7-dihydro-[1,2,4]triazolo[1,5-a]pyrimidin-6-yl)phenyl)-4-methylpent-2-enamide]	< 100 nM	< 100 nM
C=CC(=O)Nc1ccccc1-c1c(CC)n(CC(=O)Nc2ccc(C(F)(F)F)cc2Cl)c2nc(C3=CCOCC3)nn2c1=O [Example 16, N-(2-(4-(2-((2-Chloro-4-(trifluoromethyl)phenyl)amino)-2-oxoethyl)-2-(3,6-dihydro-2H-pyran-4-yl)-5-ethyl-7-oxo-4,7-dihydro-[1,2,4]triazolo[1,5-a]pyrimidin-6-yl)phenyl)acrylamide]	< 100 nM	< 100 nM
C=CC(=O)Nc1ccccc1-c1c(CC)n(CC(=O)Nc2ccc(C(F)(F)F)cc2)c2nc(C3CCCCC3)nn2c1=O [Example 20, N-(2-(2-Cyclohexyl-5-ethyl-7-oxo-4-(2-oxo-2-((4-(trifluoromethyl)phenyl)amino)ethyl)-4,7-dihydro-[1,2,4]triazolo[1,5-a]pyrimidin-6-yl)phenyl)acrylamide]	100 to 500 nM	100 to 500 nM

The next lines start with the values.

IC50 [1]	IC50 [2]	Compound
500 to 1000 nM	100 to 500 nM	C=CC(=O)Nc1ccccc1-c1c(CC)n(CC(=O)Nc2ccc(C(F)(F)F)cc2)c2nc(C3CCOCC3)nn2c1=O [Example 23, N-(2-(5-Ethyl-7-oxo-4-(2-oxo-2-((4-(trifluoromethyl)phenyl)amino)ethyl)-2-(tetrahydro-2H-pyran-4-yl)-4,7-dihydro-[1,2,4]triazolo[1,5-a]pyrimidin-6-yl)phenyl)acrylamide]
< 100 nM	< 100 nM	C=CC(=O)Nc1ccccc1-c1c(CC)n(CC(=O)Nc2ccc(C(F)(F)F)cc2)c2nc(C3CC3)nn2c1=O [Example 17, N-(2-(2-Cyclopropyl-5-ethyl-7-oxo-4-(2-oxo-2-((4-(trifluoromethyl)phenyl)amino)ethyl)-4,7-dihydro-[1,2,4]triazolo[1,5-a]pyrimidin-6-yl)phenyl)acrylamide]
100 to 500 nM	< 100 nM	C=CC(=O)N(C)c1ccccc1-c1c(CC)n(CC(=O)Nc2ccc(C(F)(F)F)cc2)c2nc(C3=CCOCC3)nn2c1=O [Example 6, N-(2-(2-(3,6-Dihydro-2H-pyran-4-yl)-5-ethyl-7-oxo-4-(2-oxo-2-((4-(trifluoromethyl)phenyl)amino)ethyl)-4,7-dihydro-[1,2,4]triazolo[1,5-a]pyrimidin-6-yl)phenyl)-N-methylacrylamide]
500 to 1000 nM	500 to 1000 nM	C=CC(=O)Nc1ccc(Cl)cc1-c1c(CC)n(CC(=O)Nc2ccc(C(F)(F)F)cc2)c2nc(C3=CCOCC3)nn2c1=O [Example 11, N-(4-Chloro-2-(2-(3,6-dihydro-2H-pyran-4-yl)-5-ethyl-7-oxo-4-(2-oxo-2-((4-(trifluoromethyl)phenyl)amino)ethyl)-4,7-dihydro-[1,2,4]triazolo[1,5-a]pyrimidin-6-yl)phenyl)acrylamide]
1000 to 2000 nM	500 to 1000 nM	CCOC(=O)/C=C/C(=O)Nc1ccccc1-c1c(CC)n(CC(=O)Nc2ccc(C(F)(F)F)cc2)c2nc(C3=CCOCC3)nn2c1=O [Example 3, Ethyl (E)-4-((2-(2-(3,6-dihydro-2H-pyran-4-yl)-5-ethyl-7-oxo-4-(2-oxo-2-((4-(trifluoromethyl)phenyl)amino)ethyl)-4,7-dihydro-[1,2,4]triazolo[1,5-a]pyrimidin-6-yl)phenyl)amino)-4-oxobut-2-enoate]
